Source: US9340590B2 (priority 2011, dated 2016)
Positions of bridges follow the written chain, without caps; N, C: chain ends. Non-standard residues stand in square brackets, D forms with d. Residues, ends and D or L forms follow the SMILES beside them. Phe(3,4-(OMe)2) = COc1ccc(C[C@H](N)C(=O)O)cc1OC; Phe(3,4-Cl2) = N[C@@H](Cc1ccc(Cl)c(Cl)c1)C(=O)O; Phe(4-CF3) = N[C@@H](Cc1ccc(C(F)(F)F)cc1)C(=O)O; Bpa = N[C@@H](Cc1ccc(C(=O)c2ccccc2)cc1)C(=O)O; Phe(4-F) = N[C@@H](Cc1ccc(F)cc1)C(=O)O; Phe(4-I) = N[C@@H](Cc1ccc(I)cc1)C(=O)O

What was measured:
Test in all cases: cell-based
hNav1.7 = hNav1.7 (Homo sapiens, UniProt Q15858); type: cell-based; settings: IonWorks Quattro, use-dependent protocol, hNav1.7; read-out: IWQ Use Nav1.7
Chain of hNav1.7 (Q15858 whole entry, looked up): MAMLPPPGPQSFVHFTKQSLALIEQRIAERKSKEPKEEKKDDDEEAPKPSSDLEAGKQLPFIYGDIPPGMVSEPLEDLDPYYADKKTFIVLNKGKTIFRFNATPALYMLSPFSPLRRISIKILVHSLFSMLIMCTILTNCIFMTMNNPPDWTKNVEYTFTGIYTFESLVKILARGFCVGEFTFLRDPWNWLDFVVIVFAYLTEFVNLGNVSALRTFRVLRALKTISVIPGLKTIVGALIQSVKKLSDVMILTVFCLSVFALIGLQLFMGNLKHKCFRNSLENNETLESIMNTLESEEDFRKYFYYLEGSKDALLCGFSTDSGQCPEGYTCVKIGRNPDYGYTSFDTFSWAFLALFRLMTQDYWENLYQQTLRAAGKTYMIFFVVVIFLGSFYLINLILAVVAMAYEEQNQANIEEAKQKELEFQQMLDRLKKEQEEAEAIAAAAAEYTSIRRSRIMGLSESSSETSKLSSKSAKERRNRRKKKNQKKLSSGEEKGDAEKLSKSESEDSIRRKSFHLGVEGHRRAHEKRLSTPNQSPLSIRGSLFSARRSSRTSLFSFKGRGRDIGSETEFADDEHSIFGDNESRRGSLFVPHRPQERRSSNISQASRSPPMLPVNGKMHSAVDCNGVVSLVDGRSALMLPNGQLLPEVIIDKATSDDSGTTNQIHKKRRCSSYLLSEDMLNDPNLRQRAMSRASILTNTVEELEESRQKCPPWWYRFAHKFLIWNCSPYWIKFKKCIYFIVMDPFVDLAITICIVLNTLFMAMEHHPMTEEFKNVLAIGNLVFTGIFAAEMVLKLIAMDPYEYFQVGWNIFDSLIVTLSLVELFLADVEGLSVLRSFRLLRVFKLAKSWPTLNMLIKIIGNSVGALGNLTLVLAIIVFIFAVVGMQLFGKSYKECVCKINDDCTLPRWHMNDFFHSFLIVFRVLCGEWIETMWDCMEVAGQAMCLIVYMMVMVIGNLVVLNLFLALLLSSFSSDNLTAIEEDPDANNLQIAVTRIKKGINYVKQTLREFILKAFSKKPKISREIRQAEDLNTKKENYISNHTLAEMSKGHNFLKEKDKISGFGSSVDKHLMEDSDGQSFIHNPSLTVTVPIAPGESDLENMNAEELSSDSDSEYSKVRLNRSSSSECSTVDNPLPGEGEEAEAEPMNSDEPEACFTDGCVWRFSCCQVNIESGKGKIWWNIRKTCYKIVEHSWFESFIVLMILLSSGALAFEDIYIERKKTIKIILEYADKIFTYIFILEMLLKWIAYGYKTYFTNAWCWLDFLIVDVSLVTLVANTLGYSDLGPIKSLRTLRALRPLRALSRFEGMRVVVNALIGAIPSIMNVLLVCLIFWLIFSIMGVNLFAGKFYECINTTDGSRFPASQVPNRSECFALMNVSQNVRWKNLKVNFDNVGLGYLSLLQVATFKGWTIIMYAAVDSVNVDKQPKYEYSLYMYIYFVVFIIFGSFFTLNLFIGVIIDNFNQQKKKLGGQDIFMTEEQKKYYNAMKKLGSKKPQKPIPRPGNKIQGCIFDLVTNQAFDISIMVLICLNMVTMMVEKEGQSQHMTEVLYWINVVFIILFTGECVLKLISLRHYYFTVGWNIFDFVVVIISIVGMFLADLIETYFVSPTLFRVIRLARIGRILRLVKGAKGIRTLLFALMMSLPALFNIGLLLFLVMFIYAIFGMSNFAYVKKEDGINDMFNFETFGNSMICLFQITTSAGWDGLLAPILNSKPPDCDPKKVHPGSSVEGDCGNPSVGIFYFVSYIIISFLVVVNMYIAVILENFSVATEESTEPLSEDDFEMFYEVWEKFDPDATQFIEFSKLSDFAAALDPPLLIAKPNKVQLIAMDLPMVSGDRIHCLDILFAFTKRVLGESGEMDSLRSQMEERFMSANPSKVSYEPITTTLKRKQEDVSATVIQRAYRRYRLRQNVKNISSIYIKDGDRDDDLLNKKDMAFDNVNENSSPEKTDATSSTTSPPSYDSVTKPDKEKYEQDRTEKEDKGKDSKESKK

hNav1.5 = hNav1.5 (Homo sapiens, UniProt Q14524); settings: IonWorks Quattro, use-dependent protocol, hNav1.5; read-out: IWQ Use Nav1.5
hNav1.3 = hNav1.3 (Homo sapiens, UniProt Q9NY46); settings: IonWorks Quattro, use-dependent protocol, hNav1.3; read-out: IWQ Use Nav1.3
Chain of hNav1.3 (Q9NY46 whole entry, looked up): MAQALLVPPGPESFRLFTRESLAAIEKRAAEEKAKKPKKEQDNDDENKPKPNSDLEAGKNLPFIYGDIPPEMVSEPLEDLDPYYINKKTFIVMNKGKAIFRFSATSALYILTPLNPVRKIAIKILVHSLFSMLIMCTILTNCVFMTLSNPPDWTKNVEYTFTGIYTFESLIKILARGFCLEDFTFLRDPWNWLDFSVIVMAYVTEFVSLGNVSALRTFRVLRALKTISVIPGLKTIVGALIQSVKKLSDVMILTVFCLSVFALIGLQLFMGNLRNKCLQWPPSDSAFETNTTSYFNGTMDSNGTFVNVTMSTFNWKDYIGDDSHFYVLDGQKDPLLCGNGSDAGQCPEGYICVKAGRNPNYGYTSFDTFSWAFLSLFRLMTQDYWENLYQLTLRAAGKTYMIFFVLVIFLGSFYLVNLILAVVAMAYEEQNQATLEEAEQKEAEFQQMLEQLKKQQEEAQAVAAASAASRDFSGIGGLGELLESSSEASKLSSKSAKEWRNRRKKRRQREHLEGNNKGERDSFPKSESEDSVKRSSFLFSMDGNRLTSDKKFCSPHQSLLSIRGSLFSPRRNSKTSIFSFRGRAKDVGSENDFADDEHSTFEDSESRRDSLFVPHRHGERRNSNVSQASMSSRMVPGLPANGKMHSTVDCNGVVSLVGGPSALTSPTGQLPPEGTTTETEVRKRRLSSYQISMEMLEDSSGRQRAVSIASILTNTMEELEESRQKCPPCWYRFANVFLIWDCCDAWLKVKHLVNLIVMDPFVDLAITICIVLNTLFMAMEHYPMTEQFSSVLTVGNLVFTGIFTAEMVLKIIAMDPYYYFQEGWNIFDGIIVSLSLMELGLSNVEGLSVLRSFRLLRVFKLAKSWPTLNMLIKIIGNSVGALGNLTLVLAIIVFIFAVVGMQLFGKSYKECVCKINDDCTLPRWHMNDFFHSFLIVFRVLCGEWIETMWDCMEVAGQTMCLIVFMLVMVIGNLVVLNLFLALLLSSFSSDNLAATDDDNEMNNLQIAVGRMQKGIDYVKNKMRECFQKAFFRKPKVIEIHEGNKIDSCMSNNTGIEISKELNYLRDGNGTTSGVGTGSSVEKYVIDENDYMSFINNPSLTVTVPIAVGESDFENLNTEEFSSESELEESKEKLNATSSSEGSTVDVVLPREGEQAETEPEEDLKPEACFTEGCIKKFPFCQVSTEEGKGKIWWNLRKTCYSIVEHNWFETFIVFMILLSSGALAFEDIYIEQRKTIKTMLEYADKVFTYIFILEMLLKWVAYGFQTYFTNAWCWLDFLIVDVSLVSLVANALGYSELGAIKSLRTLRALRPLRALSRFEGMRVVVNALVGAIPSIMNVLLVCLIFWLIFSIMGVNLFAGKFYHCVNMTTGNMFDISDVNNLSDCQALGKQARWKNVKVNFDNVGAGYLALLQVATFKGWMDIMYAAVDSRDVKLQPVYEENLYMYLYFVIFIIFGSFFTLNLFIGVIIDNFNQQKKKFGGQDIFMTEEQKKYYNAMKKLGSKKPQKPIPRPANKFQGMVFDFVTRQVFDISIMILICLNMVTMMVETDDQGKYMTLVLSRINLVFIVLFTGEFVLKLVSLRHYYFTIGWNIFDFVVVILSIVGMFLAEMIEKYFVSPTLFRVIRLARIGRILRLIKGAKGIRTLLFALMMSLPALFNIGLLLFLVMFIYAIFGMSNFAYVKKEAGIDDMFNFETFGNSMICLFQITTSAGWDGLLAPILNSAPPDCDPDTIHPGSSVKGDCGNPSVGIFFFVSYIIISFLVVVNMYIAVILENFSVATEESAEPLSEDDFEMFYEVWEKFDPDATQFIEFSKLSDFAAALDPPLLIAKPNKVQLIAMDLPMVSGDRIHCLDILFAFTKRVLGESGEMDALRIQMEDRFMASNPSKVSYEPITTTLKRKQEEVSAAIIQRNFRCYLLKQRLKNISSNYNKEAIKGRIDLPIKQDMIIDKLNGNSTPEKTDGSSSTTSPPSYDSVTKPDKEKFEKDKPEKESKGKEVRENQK

Row | SMILES | IC50 (hNav1.7) [nM] | IC50 (hNav1.5) [nM] | IC50 (hNav1.3) [nM]
1 | CC[C@H](C)[C@@H]1NC(=O)[C@@H]2CSSC[C@@H]3NC(=O)[C@H](C(C)C)NC(=O)[C@H](CC(C)C)NC(=O)[C@H](CC(N)=O)NC(=O)[C@@H]4CCCN4C(=O)[C@H](CCCNC(=N)N)NC(=O)[C@H](CSSC[C@H](NC(=O)[C@@H](N)CC(=O)O)C(=O)N[C@@H](CC(C)C)C(=O)NCC(=O)N[C@@H](CO)C(=O)N[C@@H](Cc4ccccc4)C(=O)N[C@@H](CCCNC(=N)N)C(=O)N[C@@H](CCCCN)C(=O)N2)NC(=O)[C@H](CSSC[C@@H](C(=O)N[C@@H](CCCCN)C(=O)N[C@@H](Cc2ccc(O)cc2)C(=O)N[C@H](C(=O)N[C@@H](Cc2ccccc2)C(N)=O)C(C)C)NC(=O)[C@H](Cc2c[nH]c4ccccc24)NC(=O)[C@H](CCCCN)NC(=O)[C@H](Cc2c[nH]cn2)NC(=O)[C@H]([C@@H](C)O)NC(=O)[C@H](CCCNC(=N)N)NC(=O)[C@H](CO)NC3=O)NC(=O)[C@H](CCCCN)NC(=O)[C@H](CC(=O)O)NC(=O)[C@H](CC(N)=O)NC(=O)[C@H](CC(=O)O)NC(=O)[C@@H]2CCCN2C1=O [compound 617] (H-DCLGSFRKCIPDNDKCCRPNLVCSRTHKWCKYVF-NH2; disulfide 2-17, 9-23, 16-30) | 760 | 11900 | 1700
2 | CC[C@H](C)[C@@H]1NC(=O)[C@@H]2CSSC[C@@H]3NC(=O)[C@H](C(C)C)NC(=O)[C@H](CC(C)C)NC(=O)[C@H](CC(N)=O)NC(=O)[C@@H]4CCCN4C(=O)[C@H](CCCNC(=N)N)NC(=O)[C@H](CSSC[C@H](NC(=O)[C@@H](N)CC(=O)O)C(=O)N[C@@H](CC(C)C)C(=O)NCC(=O)N[C@@H](C(C)C)C(=O)N[C@@H](Cc4ccccc4)C(=O)N[C@@H](CCCNC(=N)N)C(=O)N[C@@H](CCCCN)C(=O)N2)NC(=O)[C@H](CSSC[C@@H](C(=O)N[C@@H](CCCCN)C(=O)N[C@@H](Cc2ccc(O)cc2)C(=O)N[C@H](C(=O)N[C@@H](Cc2ccccc2)C(N)=O)C(C)C)NC(=O)[C@H](Cc2c[nH]c4ccccc24)NC(=O)[C@H](CCCCN)NC(=O)[C@H](Cc2c[nH]cn2)NC(=O)[C@H]([C@@H](C)O)NC(=O)[C@H](CCCNC(=N)N)NC(=O)[C@H](CO)NC3=O)NC(=O)[C@H](CCCCN)NC(=O)[C@H](CC(=O)O)NC(=O)[C@H](CC(N)=O)NC(=O)[C@H](CC(=O)O)NC(=O)[C@@H]2CCCN2C1=O [compound 618] (H-DCLGVFRKCIPDNDKCCRPNLVCSRTHKWCKYVF-NH2; disulfide 2-17, 9-23, 16-30) | 120 | 9400 | 99
3 | CC[C@H](C)[C@@H]1NC(=O)[C@@H]2CSSC[C@@H]3NC(=O)[C@H](C(C)C)NC(=O)[C@H](CC(C)C)NC(=O)[C@H](CC(N)=O)NC(=O)[C@@H]4CCCN4C(=O)[C@H](CCCNC(=N)N)NC(=O)[C@H](CSSC[C@H](NC(=O)[C@@H](N)CC(=O)O)C(=O)N[C@@H](CC(C)C)C(=O)NCC(=O)N[C@@H](Cc4ccc(C(=O)c5ccccc5)cc4)C(=O)N[C@@H](Cc4ccccc4)C(=O)N[C@@H](CCCNC(=N)N)C(=O)N[C@@H](CCCCN)C(=O)N2)NC(=O)[C@H](CSSC[C@@H](C(=O)N[C@@H](CCCCN)C(=O)N[C@@H](Cc2ccc(O)cc2)C(=O)N[C@H](C(=O)N[C@@H](Cc2ccccc2)C(N)=O)C(C)C)NC(=O)[C@H](Cc2c[nH]c4ccccc24)NC(=O)[C@H](CCCCN)NC(=O)[C@H](Cc2c[nH]cn2)NC(=O)[C@H]([C@@H](C)O)NC(=O)[C@H](CCCNC(=N)N)NC(=O)[C@H](CO)NC3=O)NC(=O)[C@H](CCCCN)NC(=O)[C@H](CC(=O)O)NC(=O)[C@H](CC(N)=O)NC(=O)[C@H](CC(=O)O)NC(=O)[C@@H]2CCCN2C1=O [compound 619] (H-DCLG[Bpa]FRKCIPDNDKCCRPNLVCSRTHKWCKYVF-NH2; disulfide 2-17, 9-23, 16-30) | 140 | 7700 | 42
4 | CC[C@H](C)[C@@H]1NC(=O)[C@@H]2CSSC[C@@H]3NC(=O)[C@H](C(C)C)NC(=O)[C@H](CC(C)C)NC(=O)[C@H](CC(N)=O)NC(=O)[C@@H]4CCCN4C(=O)[C@H](CCCNC(=N)N)NC(=O)[C@H](CSSC[C@H](NC(=O)[C@@H](N)CC(=O)O)C(=O)N[C@@H](CC(C)C)C(=O)NCC(=O)N[C@@H](Cc4ccc(OC)c(OC)c4)C(=O)N[C@@H](Cc4ccccc4)C(=O)N[C@@H](CCCNC(=N)N)C(=O)N[C@@H](CCCCN)C(=O)N2)NC(=O)[C@H](CSSC[C@@H](C(=O)N[C@@H](CCCCN)C(=O)N[C@@H](Cc2ccc(O)cc2)C(=O)N[C@H](C(=O)N[C@@H](Cc2ccccc2)C(N)=O)C(C)C)NC(=O)[C@H](Cc2c[nH]c4ccccc24)NC(=O)[C@H](CCCCN)NC(=O)[C@H](Cc2c[nH]cn2)NC(=O)[C@H]([C@@H](C)O)NC(=O)[C@H](CCCNC(=N)N)NC(=O)[C@H](CO)NC3=O)NC(=O)[C@H](CCCCN)NC(=O)[C@H](CC(=O)O)NC(=O)[C@H](CC(N)=O)NC(=O)[C@H](CC(=O)O)NC(=O)[C@@H]2CCCN2C1=O [compound 620] (H-DCLG[Phe(3,4-(OMe)2)]FRKCIPDNDKCCRPNLVCSRTHKWCKYVF-NH2; disulfide 2-17, 9-23, 16-30) | 640 | 10400 | 990
5 | CC[C@H](C)[C@@H]1NC(=O)[C@@H]2CSSC[C@@H]3NC(=O)[C@H](C(C)C)NC(=O)[C@H](CC(C)C)NC(=O)[C@H](CC(N)=O)NC(=O)[C@@H]4CCCN4C(=O)[C@H](CCCNC(=N)N)NC(=O)[C@H](CSSC[C@H](NC(=O)[C@@H](N)CC(=O)O)C(=O)N[C@@H](CC(C)C)C(=O)NCC(=O)N[C@@H](Cc4ccc(Cl)c(Cl)c4)C(=O)N[C@@H](Cc4ccccc4)C(=O)N[C@@H](CCCNC(=N)N)C(=O)N[C@@H](CCCCN)C(=O)N2)NC(=O)[C@H](CSSC[C@@H](C(=O)N[C@@H](CCCCN)C(=O)N[C@@H](Cc2ccc(O)cc2)C(=O)N[C@H](C(=O)N[C@@H](Cc2ccccc2)C(N)=O)C(C)C)NC(=O)[C@H](Cc2c[nH]c4ccccc24)NC(=O)[C@H](CCCCN)NC(=O)[C@H](Cc2c[nH]cn2)NC(=O)[C@H]([C@@H](C)O)NC(=O)[C@H](CCCNC(=N)N)NC(=O)[C@H](CO)NC3=O)NC(=O)[C@H](CCCCN)NC(=O)[C@H](CC(=O)O)NC(=O)[C@H](CC(N)=O)NC(=O)[C@H](CC(=O)O)NC(=O)[C@@H]2CCCN2C1=O [compound 621] (H-DCLG[Phe(3,4-Cl2)]FRKCIPDNDKCCRPNLVCSRTHKWCKYVF-NH2; disulfide 2-17, 9-23, 16-30) | 48 | 4100 | 5
6 | CC[C@H](C)[C@@H]1NC(=O)[C@@H]2CSSC[C@@H]3NC(=O)[C@H](C(C)C)NC(=O)[C@H](CC(C)C)NC(=O)[C@H](CC(N)=O)NC(=O)[C@@H]4CCCN4C(=O)[C@H](CCCNC(=N)N)NC(=O)[C@H](CSSC[C@H](NC(=O)[C@@H](N)CC(=O)O)C(=O)N[C@@H](CC(C)C)C(=O)NCC(=O)N[C@@H](Cc4ccc(I)cc4)C(=O)N[C@@H](Cc4ccccc4)C(=O)N[C@@H](CCCNC(=N)N)C(=O)N[C@@H](CCCCN)C(=O)N2)NC(=O)[C@H](CSSC[C@@H](C(=O)N[C@@H](CCCCN)C(=O)N[C@@H](Cc2ccc(O)cc2)C(=O)N[C@H](C(=O)N[C@@H](Cc2ccccc2)C(N)=O)C(C)C)NC(=O)[C@H](Cc2c[nH]c4ccccc24)NC(=O)[C@H](CCCCN)NC(=O)[C@H](Cc2c[nH]cn2)NC(=O)[C@H]([C@@H](C)O)NC(=O)[C@H](CCCNC(=N)N)NC(=O)[C@H](CO)NC3=O)NC(=O)[C@H](CCCCN)NC(=O)[C@H](CC(=O)O)NC(=O)[C@H](CC(N)=O)NC(=O)[C@H](CC(=O)O)NC(=O)[C@@H]2CCCN2C1=O [compound 622] (H-DCLG[Phe(4-I)]FRKCIPDNDKCCRPNLVCSRTHKWCKYVF-NH2; disulfide 2-17, 9-23, 16-30) | 12300 | 12900 | 21000
7 | CC[C@H](C)[C@@H]1NC(=O)[C@@H]2CSSC[C@@H]3NC(=O)[C@H](C(C)C)NC(=O)[C@H](CC(C)C)NC(=O)[C@H](CC(N)=O)NC(=O)[C@@H]4CCCN4C(=O)[C@H](CCCNC(=N)N)NC(=O)[C@H](CSSC[C@H](NC(=O)[C@@H](N)CC(=O)O)C(=O)N[C@@H](CC(C)C)C(=O)NCC(=O)N[C@@H](Cc4ccc(C(F)(F)F)cc4)C(=O)N[C@@H](Cc4ccccc4)C(=O)N[C@@H](CCCNC(=N)N)C(=O)N[C@@H](CCCCN)C(=O)N2)NC(=O)[C@H](CSSC[C@@H](C(=O)N[C@@H](CCCCN)C(=O)N[C@@H](Cc2ccc(O)cc2)C(=O)N[C@H](C(=O)N[C@@H](Cc2ccccc2)C(N)=O)C(C)C)NC(=O)[C@H](Cc2c[nH]c4ccccc24)NC(=O)[C@H](CCCCN)NC(=O)[C@H](Cc2c[nH]cn2)NC(=O)[C@H]([C@@H](C)O)NC(=O)[C@H](CCCNC(=N)N)NC(=O)[C@H](CO)NC3=O)NC(=O)[C@H](CCCCN)NC(=O)[C@H](CC(=O)O)NC(=O)[C@H](CC(N)=O)NC(=O)[C@H](CC(=O)O)NC(=O)[C@@H]2CCCN2C1=O [compound 623] (H-DCLG[Phe(4-CF3)]FRKCIPDNDKCCRPNLVCSRTHKWCKYVF-NH2; disulfide 2-17, 9-23, 16-30) | 96 | 7100 | 13
8 | CC[C@H](C)[C@@H]1NC(=O)[C@@H]2CSSC[C@@H]3NC(=O)[C@H](C(C)C)NC(=O)[C@H](CC(C)C)NC(=O)[C@H](CC(N)=O)NC(=O)[C@@H]4CCCN4C(=O)[C@H](CCCNC(=N)N)NC(=O)[C@H](CSSC[C@H](NC(=O)[C@@H](N)CC(=O)O)C(=O)N[C@@H](CC(C)C)C(=O)NCC(=O)N[C@@H](Cc4ccc(F)cc4)C(=O)N[C@@H](Cc4ccccc4)C(=O)N[C@@H](CCCNC(=N)N)C(=O)N[C@@H](CCCCN)C(=O)N2)NC(=O)[C@H](CSSC[C@@H](C(=O)N[C@@H](CCCCN)C(=O)N[C@@H](Cc2ccc(O)cc2)C(=O)N[C@H](C(=O)N[C@@H](Cc2ccccc2)C(N)=O)C(C)C)NC(=O)[C@H](Cc2c[nH]c4ccccc24)NC(=O)[C@H](CCCCN)NC(=O)[C@H](Cc2c[nH]cn2)NC(=O)[C@H]([C@@H](C)O)NC(=O)[C@H](CCCNC(=N)N)NC(=O)[C@H](CO)NC3=O)NC(=O)[C@H](CCCCN)NC(=O)[C@H](CC(=O)O)NC(=O)[C@H](CC(N)=O)NC(=O)[C@H](CC(=O)O)NC(=O)[C@@H]2CCCN2C1=O [compound 624] (H-DCLG[Phe(4-F)]FRKCIPDNDKCCRPNLVCSRTHKWCKYVF-NH2; disulfide 2-17, 9-23, 16-30) | 60 | 11700 | 20
